Values of other authors in patent publication US12433863B2, “Pharmaceutical compositions and uses directed to lysosomal storage disorders” (INTRABIO LIMITED, priority 2016, dated 2025).

How the values were obtained:
[1] = system: rat model of an acute unilateral labyrinthectomy; settings: Gunther et al. 2015; cited from earlier work
[2] = system: glycosphingolipid (GSL) biosynthesis; settings: Patterson, 2006; cited from earlier work

Structure (SMILES) | Effect on postural compensation [1] | Benefit in clinical trial of substrate reduction therapy [2]
CC(=O)N[C@@H](CC(C)C)C(=O)O [N-acetyl-L-leucine] | significant effect | –
CCCCN1C[C@H](O)[C@@H](O)[C@H](O)[C@H]1CO [miglustat] | – | some benefit
